The target in the assay is T1, recombinant human aromatase (CYP19) (Homo sapiens, UniProt P11511).
T1 construct: purchased GENTEST 456260; host or cells: baculovirus/insect cells
T1 sequence (P11511 1-503): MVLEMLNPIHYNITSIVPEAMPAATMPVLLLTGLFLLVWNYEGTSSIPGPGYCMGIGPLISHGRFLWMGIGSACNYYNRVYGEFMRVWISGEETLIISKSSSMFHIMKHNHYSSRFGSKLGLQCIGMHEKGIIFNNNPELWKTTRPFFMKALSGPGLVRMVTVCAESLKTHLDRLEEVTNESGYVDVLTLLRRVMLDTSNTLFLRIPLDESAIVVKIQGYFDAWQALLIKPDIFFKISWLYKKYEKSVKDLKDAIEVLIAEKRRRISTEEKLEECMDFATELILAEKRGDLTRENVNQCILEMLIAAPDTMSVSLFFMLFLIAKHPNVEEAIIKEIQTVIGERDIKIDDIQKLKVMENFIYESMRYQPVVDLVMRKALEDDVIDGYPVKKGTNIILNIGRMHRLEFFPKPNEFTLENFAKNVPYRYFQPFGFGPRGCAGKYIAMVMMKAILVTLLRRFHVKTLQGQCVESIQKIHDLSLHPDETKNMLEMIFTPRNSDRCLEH
The experiment in a line: aromatase (CYP19) inhibition assay, fluorometric substrate dibenzylfluorescein (DBF). As to conditions: recombinant human aromatase (baculovirus/insect cell expressed), test compounds 2×10^−5 to 10^−9 M, 37° C. for 30 minutes. Format: biochemical. How it is done: Compounds of the invention were evaluated for inhibiting aromatase enzyme using the following aromatase (CYP19) inhibition assay which detects aromatase inhibitors utilizing recombinant human aromatase (baculovirus/insect cell expressed) and the fluorometric substrate dibenzylfluorescein (DBF). Aromatase will metabolize DBF to fluorescein which will give the fluorescent signal. The assay is conducted in 96-well black, Falcon plate (BD Biosciences, Cat. No. 353241) in the total volume of 100 μL per well. 40 μL of the Cofactor/Dilution buffer (1) is added to the plate followed by 10 μL of serially diluted test compounds in duplicates for final concentration of 2×10^−5 to 10^−9 M, or 10 μL of phosphate buffer for positive and background control wells. After 10 minutes of preincubation at 37° C., the reaction is initiated by adding 50 μL of prewarmed Enzyme/Substrate Mix (2) to the test compound wells, and positive control wells (maximum activity of CYP19, which represents 100%). The plate is incubated at 37° C. for 30 minutes. To stop the reaction, 37.5 μL of 2 N NaOH is added to all wells. For background controls, 50 μL of Enzyme/Substrate Mix (2) are added into background control wells. The plate is left at 37° C. incubator for 2 hours to develop adequate signal to background ratio. Fluorescence per well is measured in the fluorescent plate reader. The metabolite concentration is measured using excitation wavelength of 485 nm and emission wavelength of 538 nm. Inhibition of aromatase by test compounds is expressed in percentage relative to positive controls. IC50 values for the test compounds are derived from non-liner curve fitting. • (1) Cofactor/Dilution buffer: 50 mM phosphate buffer, pH=7.4; 1× NADPH regenerating system A (20× stock, GENTEST, Cat. No. 451220); 1× NAPDH regenerating system B (100× stock, GENTEST, Cat. No. 451200) and 0.2 mg/mL control protein (Insect Cell Control Supersomes, GENTEST, Cat. No. 456200) • (2) Enzyme/Substrate Mix: 50 mM phosphate buffer, pH=7.4, 0.02 nmole/mL human aromatase protein (Human CYP19+P450 Reductase Supersomes, GENTEST, Cat. No. 456260); 0.4 μM dibenzylfluorescein (DBF, GENTEST, Cat. No. 451750, prepared at 2 mM concentration in acetonitrile); 0.5 mg/mL control protein (Insect Cell Control Supersomes, GENTEST, Cat. No. 456200).
For `CC(C)(CC(O)(Cc1cc2ccncc2[nH]1)C(F)(F)F)c1cccc(F)c1` (stereo not shown) [1,1,1-Trifluoro-4-(3-fluorophenyl)-4-methyl-2-(1H-pyrrolo[2,3-c]pyridin-2-ylmethyl)pentan-2-ol], the aromatase inhibition entry is “showed aromatase inhibition”. In the case of `CC(C)(CC(O)(Cc1cc2cnccc2[nH]1)C(F)(F)F)c1cccc(F)c1` (stereo not shown) [1,1,1-Trifluoro-4-(3-fluorophenyl)-4-methyl-2-(1H-pyrrolo[3,2-c]pyridin-2-ylmethyl)pentan-2-ol] it was “showed aromatase inhibition”; in that of `COc1cc(F)ccc1C(C)(C)CC(O)(Cc1cc2ccncc2[nH]1)C(F)(F)F` (stereo not shown) [1,1,1-Trifluoro-4-(4-fluoro-2-methoxyphenyl)-4-methyl-2-(1H-pyrrolo[2,3-c]pyridin-2-ylmethyl)pentan-2-ol], “showed aromatase inhibition”; in that of `CC(C)(CC(O)(Cc1cc2cnccc2[nH]1)C(F)(F)F)c1ccc(F)cc1` (stereo not shown) [1,1,1-Trifluoro-4-(4-fluorophenyl)-4-methyl-2-(1H-pyrrolo [3,2-c]pyridin-2-ylmethyl)pentan-2-ol], “showed aromatase inhibition”. For `CC(C)(CC(O)(Cc1cc2ccncc2[nH]1)C(F)(F)F)c1ccc(F)cc1` (stereo not shown) [1,1,1-Trifluoro-4-(4-fluorophenyl)-4-methyl-2-(1H-pyrrolo[2,3-c]pyridin-2-ylmethyl)pentan-2-ol], the aromatase inhibition result was “showed aromatase inhibition”. `COc1ccc(F)cc1C(C)(C)CC(O)(Cc1cc2ccncc2[nH]1)C(F)(F)F` (stereo not shown) [1,1,1-Trifluoro-4-(5-fluoro-2-methoxyphenyl)-4-methyl-2-(1H-pyrrolo[2,3-c]pyridin-2-ylmethyl)pentan-2-ol]: the aromatase inhibition entry is reported as “showed aromatase inhibition”. For `COc1ccc(F)cc1C(C)(C)CC(O)(Cc1cc2ncncc2[nH]1)C(F)(F)F` (stereo not shown) [1,1,1-Trifluoro-4-(5-fluoro-2-methoxyphenyl)-4-methyl-2-(5H-pyrrolo[3,2-d]pyrimidin-6-ylmethyl)pentan-2-ol], the aromatase inhibition entry is recorded as “showed aromatase inhibition”. With `COc1ccc(F)cc1C(C)(C)CC(O)(Cc1cc2cncnc2[nH]1)C(F)(F)F` (stereo not shown) [1,1,1-Trifluoro-4-(5-fluoro-2-methoxyphenyl)-4-methyl-2-(7H-pyrrolo[2,3-d]pyrimidin-6-ylmethyl)pentan-2-ol], the aromatase inhibition entry is “showed aromatase inhibition”. In the case of `COc1ccc(F)cc1C(C)(C)CC(O)(Cc1cc2ccncc2s1)C(F)(F)F` (stereo not shown) [1,1,1-Trifluoro-4-(5-fluoro-2-methoxyphenyl)-4-methyl-2-thieno[2,3-c]pyridin-2-ylmethylpentan-2-ol], the aromatase inhibition result is “showed aromatase inhibition”. With `Cc1ccc(F)cc1C(C)(C)CC(O)(Cc1cc2ncncc2[nH]1)C(F)(F)F` (stereo not shown) [1,1,1-Trifluoro-4-(5-fluoro-2-methylphenyl)-4-methyl-2-(5H-pyrrolo[3,2-d]pyrimidin-6-ylmethyl)pentan-2-ol], the aromatase inhibition entry was “showed aromatase inhibition”. Consider `Cc1cc2c(c(C(C)(C)CC(O)(Cc3cc4ccncc4[nH]3)C(F)(F)F)c1)OCC2` (stereo not shown) [1,1,1-Trifluoro-4-methyl-4-(5-methyl-2,3-dihydrobenzofuran-7-yl)-2-(1H-pyrrolo[2,3-c]pyridin-2-ylmethyl)pentan-2-ol], for which the aromatase inhibition entry is reported as “showed aromatase inhibition”. `CC(C)(CC(O)(Cc1cc2cnccc2[nH]1)C(F)(F)F)c1ccccc1` (stereo not shown) [1,1,1-Trifluoro-4-methyl-4-phenyl-2-(1H-pyrrolo [3,2-c]pyridin-2-ylmethyl)pentan-2-ol]: the aromatase inhibition entry is “showed aromatase inhibition”.

As to `CC(C)(CC(O)(Cc1cc2ccncc2[nH]1)C(F)(F)F)c1ccccc1` (stereo not shown) [1,1,1-Trifluoro-4-methyl-4-phenyl-2-(1H-pyrrolo[2,3-c]pyridin-2-ylmethyl)pentan-2-ol], the aromatase inhibition result was “showed aromatase inhibition”. On to `COc1ccc(F)cc1C(C)(C)CC(O)(Cc1cc2cnccc2[nH]1)C(F)F` (stereo not shown) [1,1-Difluoro-4-(5-fluoro-2-methoxyphenyl)-4-methyl-2-(1H-pyrrolo[3,2-c]pyridin-2-ylmethyl)pentan-2-ol], for which the aromatase inhibition result was “showed aromatase inhibition”.

As for `COc1ccc(F)cc1C(C)(C)CC(O)(Cc1[nH]c2ccncc2c1CN(C)C)C(F)(F)F` (stereo not shown) [2-(3-Dimethylaminomethyl-1H-pyrrolo[3,2-c]pyridin-2-ylmethyl)-1,1,1-trifluoro-4-(5-fluoro-2-methoxyphenyl)-4-methylpentan-2-ol], the aromatase inhibition entry was “showed aromatase inhibition”. As to `COc1ccc(F)cc1C(C)(C)CC(O)(Cc1cc2ccncc2[nH]1)C1CC1` (stereo not shown) [2-Cyclopropyl-4-(5-fluoro-2-methoxyphenyl)-4-methyl-1-(1H-pyrrolo[2,3-c]pyridin-2-yl)pentan-2-ol], the aromatase inhibition entry is recorded as “showed aromatase inhibition”. In the case of `Cc1ccc(F)cc1C(C)(C)CC(O)(Cc1cc2ccncc2[nH]1)C1CC1` (stereo not shown) [2-Cyclopropyl-4-(5-fluoro-2-methylphenyl)-4-methyl-1-(1H-pyrrolo[2,3-c]pyridin-2-yl)pentan-2-ol], the aromatase inhibition result was “showed aromatase inhibition”.

Regarding `Cc1ccc(F)cc1C(C)(C)CC(O)(Cc1cc2cnccc2[nH]1)C1CC1` (stereo not shown) [2-Cyclopropyl-4-(5-fluoro-2-methylphenyl)-4-methyl-1-(1H-pyrrolo[3,2-c]pyridin-2-yl)pentan-2-ol], the aromatase inhibition entry was “showed aromatase inhibition”.

As for `CC(C)(CC(O)(Cc1cc2ccncc2[nH]1)C(F)(F)F)c1cccc2c1OCC2` (stereo not shown) [4-(2,3-Dihydrobenzofuran-7-yl)-1,1,1-trifluoro-4-methyl-2-(1H-pyrrolo[2,3-c]pyridin-2-ylmethyl)pentan-2-ol], the aromatase inhibition result is listed as “showed aromatase inhibition”.

Consider `CC(C)(CC(O)(Cc1cc2cnccc2[nH]1)C(F)(F)F)c1cccc2c1OCC2` (stereo not shown) [4-(2,3-Dihydrobenzofuran-7-yl)-1,1,1-trifluoro-4-methyl-2-(1H-pyrrolo[3,2-c]pyridin-2-ylmethyl)pentan-2-ol], for which the aromatase inhibition result is given as “showed aromatase inhibition”. Turning to `CC(C)(CC(O)(Cc1cc2ccncc2[nH]1)C1CC1)c1cc(Cl)cc2c1OCC2` (stereo not shown) [4-(5-Chloro-2,3-dihydrobenzofuran-7-yl)-2-cyclopropyl-4-methyl-1-(1H-pyrrolo[2,3-c]pyridin-2-yl)pentan-2-ol], the aromatase inhibition entry was “showed aromatase inhibition”.

As for `CC(C)(CC(O)(Cc1cc2cnccc2[nH]1)C1CC1)c1cc(Cl)cc2c1OCC2` (stereo not shown) [4-(5-Chloro-2,3-dihydrobenzofuran-7-yl)-2-cyclopropyl-4-methyl-1-(1H-pyrrolo[3,2-c]pyridin-2-yl)pentan-2-ol], the aromatase inhibition entry is “showed aromatase inhibition”. On to `CC(C)C(O)(Cc1cc2ccncc2[nH]1)CC(C)(C)c1cc(Cl)cc2c1OCC2` (stereo not shown) [5-(5-Chloro-2,3-dihydrobenzofuran-7-yl)-2,5-dimethyl-3-(1H-pyrrolo[2,3-c]pyridin-2-ylmethyl)hexan-3-ol], for which the aromatase inhibition result is given as “showed aromatase inhibition”. As to `COc1ccc(F)cc1C(C)(C)CC(O)(Cc1cc2ccncc2[nH]1)C(C)(C)C` (stereo not shown) [5-(5-Fluoro-2-methoxyphenyl)-2,2,5-trimethyl-3-(1H-pyrrolo[2,3-c]pyridin-2-ylmethyl)hexan-3-ol], the aromatase inhibition entry is recorded as “showed aromatase inhibition”.

Regarding `COc1ccc(F)cc1C(C)(C)CC(O)(Cc1cc2cnccc2[nH]1)C(C)(C)C` (stereo not shown) [5-(5-Fluoro-2-methoxyphenyl)-2,2,5-trimethyl-3-(1H-pyrrolo[3,2-c]pyridin-2-ylmethyl)hexan-3-ol], the aromatase inhibition entry is “showed aromatase inhibition”.
